No end group written: not given here. A value given as a limit tells only on which side of the number the result lay.

Among the targets are A*6801 (Homo sapiens, UniProt P04439, A269V/D185E/E176V/E277Q/E87N/F33Y/G231S/I121M/I166T/I218V/L180W/L300P/L318F/N151K/P208A/P217A/Q86R/R169H/T345S); HLA-A11 (A*1101) (Homo sapiens, UniProt P04439, A114D/D185E/E176A/F33Y/L180Q/S129P/T187R); A31 (A*3101) (Homo sapiens, UniProt P04439, A270S/D185E/E176V/E277Q/F33T/G231S/G80R/H175R/I121M/I218V/I322F/K168Q/L300P/L318F/M331R/P217A/Q94H/R138Q/T323A/T345S/T97I/V358M); HLA-A3.2 (A*0301) (Homo sapiens, UniProt P04439); A*3301 (Homo sapiens, UniProt P04439, A270S/D185E/E176V/E277Q/E87N/F33T/G231S/H175R/I121M/I218V/I322F/K168Q/K210R/L300P/L318F/M331R/P217A/Q86R/Q94H/R138Q/T323A/T345S/T97I/V358M/Y195H).

Holding throughout (test): biochemical
Type in all cases: binding

Regarding VVYRDSIPH [Peptide 78.0275], the IC50 on A*6801 is over 20000 nM; against HLA-A11 (A*1101) it was 178 nM; at A31 (A*3101) it was over 20000 nM; on HLA-A3.2 (A*0301) it was 401 nM; against A*3301, over 20000 nM.

With NLQGKLYYK [Peptide 88.0375], the IC50 against A*6801 was determined as 98 nM; at HLA-A11 (A*1101), 55 nM; against A31 (A*3101) it was 363 nM; on HLA-A3.2 (A*0301) it was 277 nM; against A*3301 it was 9.4 nM.

Take EFMSFLTALK [Peptide 1587.10]: the IC50 at A*6801 is 20 nM; against HLA-A11 (A*1101), 683 nM; at A31 (A*3101), 5960 nM; against HLA-A3.2 (A*0301), 477 nM; against A*3301, 21 nM.

As to SVRKLTEDR [Peptide 9017.0106], the IC50 against A*6801 is 226 nM; on HLA-A11 (A*1101), 7640 nM; against A31 (A*3101) it was 48 nM; on HLA-A3.2 (A*0301), 16800 nM; at A*3301, 646 nM.

On to RVLQGLPREK [Peptide 9012.0238], for which the IC50 at A*6801 is 14400 nM; on HLA-A11 (A*1101), 35 nM; against A31 (A*3101) it was 88 nM; at HLA-A3.2 (A*0301) it was 38 nM; on A*3301, over 20000 nM.

On to CTYSPALNR [Peptide 1556.42], for which the IC50 at A*6801 was determined as 19 nM; on HLA-A11 (A*1101) it was 9.6 nM; against A31 (A*3101), 17 nM; against HLA-A3.2 (A*0301), 27 nM; at A*3301, 8.6 nM.

For the sequence TVHVYFDGNK [Peptide 1589.24], the IC50 is 97 nM against A*6801; 61 nM against HLA-A11 (A*1101); over 20000 nM at A31 (A*3101); 707 nM against HLA-A3.2 (A*0301); over 20000 nM against A*3301.

On to KLGIVTITY [Peptide 88.0428], for which the IC50 against A*6801 was over 20000 nM; against HLA-A11 (A*1101) it was 3430 nM; against A31 (A*3101), over 20000 nM; against HLA-A3.2 (A*0301), 65 nM; against A*3301, over 20000 nM.

Consider SSCMGGMNR [Peptide 1556.59], for which the IC50 against A*6801 was found to be 110 nM; on HLA-A11 (A*1101) it was 16 nM; on A31 (A*3101), 54 nM; against HLA-A3.2 (A*0301), 206 nM; against A*3301 it was 39 nM.

On to RQMSMGQWIK [Peptide 1587.35], for which the IC50 was 2230 nM against A*6801; 6 nM against HLA-A11 (A*1101); 48 nM on A31 (A*3101); 53 nM at HLA-A3.2 (A*0301); over 20000 nM at A*3301.

For VVVKSPNHVK [Peptide 9012.0255], the concentration for half-maximal inhibition (IC50) against A*6801 is 320 nM; against HLA-A11 (A*1101) it was 88 nM; against A31 (A*3101), 7700 nM; at HLA-A3.2 (A*0301) it was 256 nM; on A*3301, over 20000 nM.

With VTIYYGVPVWK [Peptide 1525.03], the IC50 is 28 nM against A*6801; 2.5 nM against HLA-A11 (A*1101); 534 nM at A31 (A*3101); 42 nM at HLA-A3.2 (A*0301); over 20000 nM against A*3301.

For the sequence VTYNSEVQR [Peptide 1589.29], the IC50 was determined as 23 nM against A*6801; 25 nM on HLA-A11 (A*1101); 40 nM against A31 (A*3101); 71 nM on HLA-A3.2 (A*0301); 152 nM against A*3301.

With AFDLSHFLK [Peptide 9017.0063], the IC50 at A*6801 is 216 nM; against HLA-A11 (A*1101) it was 46 nM; at A31 (A*3101) it was 639 nM; at HLA-A3.2 (A*0301) it was 777 nM; on A*3301, 1440 nM.

With RINTWKSLVK [Peptide 9017.0215], the IC50 on A*6801 was 11500 nM; against HLA-A11 (A*1101), 10 nM; against A31 (A*3101), 632 nM; against HLA-A3.2 (A*0301), 12 nM; against A*3301, over 20000 nM.

On to EQNEALELK [Peptide 1556.69], for which the IC50 was 11800 nM against A*6801; 128 nM at HLA-A11 (A*1101); 2300 nM at A31 (A*3101); 166 nM against HLA-A3.2 (A*0301); over 20000 nM on A*3301.

Take TLWNPPTTAK [Peptide 1556.04]: the IC50 on A*6801 is 438 nM; against HLA-A11 (A*1101), 107 nM; against A31 (A*3101), 6830 nM; against HLA-A3.2 (A*0301), 22 nM; at A*3301 it was 2240 nM.

Regarding ISYGRKKRR [Peptide 9017.0079], the IC50 was 1360 nM at A*6801; over 20000 nM on HLA-A11 (A*1101); 36 nM against A31 (A*3101); 9280 nM against HLA-A3.2 (A*0301); 1120 nM against A*3301.

In the case of GVLILALLR [Peptide 88.0338], the IC50 against A*6801 came to 943 nM; at HLA-A11 (A*1101), 56 nM; against A31 (A*3101), 2300 nM; against HLA-A3.2 (A*0301), 2880 nM; against A*3301, 3890 nM.

As to KGLGISYGRKK [Peptide 1577.23], the IC50 at A*6801 is over 20000 nM; against HLA-A11 (A*1101), 6210 nM; against A31 (A*3101) it was 49 nM; against HLA-A3.2 (A*0301) it was 23 nM; on A*3301, over 20000 nM.

For the sequence WTIAYIEYR [Peptide 9017.0116], the IC50 at A*6801 amounted to 8.6 nM; against HLA-A11 (A*1101), 31 nM; against A31 (A*3101), 97 nM; against HLA-A3.2 (A*0301) it was 11300 nM; against A*3301, 14 nM.

Regarding NSNAAAFLR [Peptide 88.0387], the IC50 at A*6801 was 20 nM; on HLA-A11 (A*1101), 213 nM; on A31 (A*3101), 158 nM; on HLA-A3.2 (A*0301), over 20000 nM; on A*3301 it was 50 nM.

In the case of FIHFRIGCR [Peptide 9017.0112], the IC50 against A*6801 was determined as 67 nM; on HLA-A11 (A*1101), 7120 nM; against A31 (A*3101) it was 61 nM; at HLA-A3.2 (A*0301), 1010 nM; at A*3301, 13 nM.

For the sequence HLFRYSWYK [Peptide 76.0171], the IC50 was 27 nM against A*6801; 16 nM on HLA-A11 (A*1101); 62 nM on A31 (A*3101); 21 nM against HLA-A3.2 (A*0301); 83 nM against A*3301.

Take YQNFQNADK [Peptide 99.0371]: the IC50 against A*6801 was 19800 nM; on HLA-A11 (A*1101) it was 177 nM; against A31 (A*3101) it was 44700 nM; against HLA-A3.2 (A*0301), 2710 nM; against A*3301, over 18400 nM.

On to YGFRLGFLK [Peptide 1556.27], for which the IC50 against A*6801 worked out at 16 nM; against HLA-A11 (A*1101), 1 nM; against A31 (A*3101), 224 nM; at HLA-A3.2 (A*0301) it was 41 nM; against A*3301, 839 nM.

Regarding ETQRQQFLK [Peptide 1589.32], the IC50 on A*6801 is 30 nM; against HLA-A11 (A*1101), 28 nM; at A31 (A*3101), 3920 nM; against HLA-A3.2 (A*0301) it was 1010 nM; against A*3301, 80 nM.

For the sequence VTIKIGGQIR [Peptide 1516.05], the IC50 against A*6801 is 46 nM; on HLA-A11 (A*1101) it was 389 nM; against A31 (A*3101), 1140 nM; against HLA-A3.2 (A*0301), 13000 nM; on A*3301, over 20000 nM.

As for GVVFGILIKK [Peptide 9012.0242], the IC50 against A*6801 was 146 nM; on HLA-A11 (A*1101), 17 nM; against A31 (A*3101), over 20000 nM; at HLA-A3.2 (A*0301), 484 nM; at A*3301, over 20000 nM.

As to RLKAICIEK [Peptide 1587.01], the IC50 against A*6801 is over 20000 nM; on HLA-A11 (A*1101), 520 nM; against A31 (A*3101) it was 20 nM; against HLA-A3.2 (A*0301) it was 43 nM; on A*3301, over 20000 nM.

Turning to LLRAVRIIK [Peptide 9017.0069], the IC50 against A*6801 is over 20000 nM; on HLA-A11 (A*1101) it was 2030 nM; against A31 (A*3101), 2640 nM; against HLA-A3.2 (A*0301) it was 69 nM; against A*3301, over 20000 nM.

As for LLQAVRIIK [Peptide 9017.0068], the IC50 on A*6801 is 15900 nM; against HLA-A11 (A*1101), 326 nM; on A31 (A*3101), 328 nM; on HLA-A3.2 (A*0301), 107 nM; on A*3301, 3020 nM.

Consider STWHWTGCNK [Peptide 1589.28], for which the IC50 against A*6801 is 32 nM; at HLA-A11 (A*1101) it was 15 nM; against A31 (A*3101), 160 nM; against HLA-A3.2 (A*0301), 72 nM; against A*3301, 1900 nM.

In the case of QVVPAYNISK [Peptide 1589.06], the IC50 was 7.6 nM on A*6801; 15 nM against HLA-A11 (A*1101); 6660 nM on A31 (A*3101); 326 nM at HLA-A3.2 (A*0301); over 20000 nM at A*3301.

As for LVYQDTILWK [Peptide 9012.0221], the IC50 is 155 nM against A*6801; 32 nM on HLA-A11 (A*1101); over 20000 nM against A31 (A*3101); 199 nM at HLA-A3.2 (A*0301); over 20000 nM against A*3301.

Regarding RLECAIYYK [Peptide 1589.01], the IC50 against A*6801 stood at 7020 nM; against HLA-A11 (A*1101), 30 nM; against A31 (A*3101), 150 nM; at HLA-A3.2 (A*0301) it was 55 nM; on A*3301 it was 6550 nM.

Turning to HLFWYSWYK [Peptide 76.0168], the IC50 is 3.4 nM at A*6801; 5.3 nM at HLA-A11 (A*1101); 28 nM on A31 (A*3101); 6.4 nM on HLA-A3.2 (A*0301); 39 nM at A*3301.

On to VTVQYDNDKK [Peptide 88.0216], for which the IC50 against A*6801 was 1150 nM; against HLA-A11 (A*1101), 100 nM; on A31 (A*3101), over 20000 nM; at HLA-A3.2 (A*0301), 18200 nM; against A*3301 it was over 20000 nM.

Consider EVLMWKFDSR [Peptide 9017.0192], for which the IC50 on A*6801 is 2.8 nM; on HLA-A11 (A*1101), 7630 nM; on A31 (A*3101), 436 nM; at HLA-A3.2 (A*0301) it was over 20000 nM; against A*3301 it was 62 nM.

Source of the values: patent US9340577B2, “HLA binding motifs and peptides and their uses” (priority 1992, dated 2016).
